ChEMBL document CHEMBL1135135, “Synthesis and cytotoxicity of 2alpha-amido docetaxel analogues” (Bioorg Med Chem Lett, 2002)
pIC50: −log10 of the molar value.

What was measured:
Assay type in all cases: functional, cell-based
Settings in all cases: Homo sapiens
A549 [1] = experiment: Inhibitory activity against A549 lung cancer cell line
KB [2] = experiment: Inhibitory activity against KB nasopharynx cancer cell line
A549 [3] = experiment: Inhibitory activity against Taxol-resistant A549 lung cancer cell line
KB [4] = experiment: Inhibitory activity against Vincristine-resistant KB nasopharynx cancer cell line
MCF7 [5] = experiment: Inhibitory activity against MCF-7 breast cancer cell line
MCF7 [6] = experiment: Inhibitory activity against Adriamycin-resistant MCF-7 breast cancer cell line

pIC50 (A549 [1]) | pIC50 (KB [2]) | pIC50 (A549 [3]) | pIC50 (KB [4]) | pIC50 (MCF7 [5]) | pIC50 (MCF7 [6]) | Compound
< 7.00 | < 7.00 | < 6.00 | < 6.00 |  |  | COc1ccc(C(=O)N[C@H]2C3[C@](C)(C(=O)[C@H](OC(C)=O)C4=C(C)[C@@H](OC(=O)[C@@H](O)[C@@H](NC(=O)OC(C)(C)C)c5ccccc5)C[C@]2(O)C4(C)C)[C@@H](O)C[C@H]2OC[C@@]32OC(C)=O)cc1 (some centres undefined)
6.60 | 6.82 |  |  |  |  | CC(=O)O[C@H]1C(=O)[C@@]2(C)C([C@H](NC(=O)c3ccccc3)[C@]3(O)C[C@H](OC(=O)[C@@H](O)[C@@H](NC(=O)OC(C)(C)C)c4ccccc4)C(C)=C1C3(C)C)[C@]1(OC(C)=O)CO[C@@H]1C[C@@H]2O (some centres undefined)
< 7.00 | < 7.00 | < 6.00 | < 6.00 |  |  | CC(=O)O[C@H]1C(=O)[C@@]2(C)C([C@H](NC(=O)c3cccc(Cl)c3)[C@]3(O)C[C@H](OC(=O)[C@@H](O)[C@@H](NC(=O)OC(C)(C)C)c4ccccc4)C(C)=C1C3(C)C)[C@@](CO)(OC(C)=O)[C@@H](O)C[C@@H]2O (some centres undefined)
< 7.00 | < 7.00 | < 6.00 | < 6.00 |  |  | CC(=O)O[C@H]1C(=O)[C@@]2(C)C([C@H](NC(=O)OCc3ccccc3)[C@]3(O)C[C@H](OC(=O)[C@@H](O)[C@@H](NC(=O)OC(C)(C)C)c4ccccc4)C(C)=C1C3(C)C)[C@]1(OC(C)=O)CO[C@@H]1C[C@@H]2O (some centres undefined)
7.02 | 7.11 | 5.96 | < 6.00 | 6.96 | < 5.35 | CC(=O)O[C@H]1C(=O)[C@@]2(C)C([C@H](NC(=O)c3cccc(Cl)c3)[C@]3(O)C[C@H](OC(=O)[C@@H](O)[C@@H](NC(=O)OC(C)(C)C)c4ccccc4)C(C)=C1C3(C)C)[C@]1(OC(C)=O)CO[C@@H]1C[C@@H]2O (some centres undefined)
< 7.00 | < 7.00 | < 6.00 | < 6.00 |  |  | CC(=O)O[C@H]1C(=O)[C@@]2(C)C([C@H](NC(=O)c3ccc(Cl)cc3)[C@]3(O)C[C@H](OC(=O)[C@@H](O)[C@@H](NC(=O)OC(C)(C)C)c4ccccc4)C(C)=C1C3(C)C)[C@@](CO)(OC(C)=O)[C@@H](O)C[C@@H]2O (some centres undefined)
7.08 | 7.13 | 6.00 | 5.96 | 7.14 | < 5.34 | COc1cccc(C(=O)N[C@H]2C3[C@](C)(C(=O)[C@H](OC(C)=O)C4=C(C)[C@@H](OC(=O)[C@@H](O)[C@@H](NC(=O)OC(C)(C)C)c5ccccc5)C[C@]2(O)C4(C)C)[C@@H](O)C[C@H]2OC[C@@]32OC(C)=O)c1 (some centres undefined)
< 7.00 | < 7.00 | < 6.00 | < 6.00 |  |  | CC(=O)O[C@H]1C(=O)[C@@]2(C)C([C@H](NC(=O)c3ccc(Cl)cc3)[C@]3(O)C[C@H](OC(=O)[C@@H](O)[C@@H](NC(=O)OC(C)(C)C)c4ccccc4)C(C)=C1C3(C)C)[C@]1(OC(C)=O)CO[C@@H]1C[C@@H]2O (some centres undefined)
< 7.00 | < 7.00 | < 6.00 | < 6.00 |  |  | CC(=O)O[C@H]1C(=O)[C@@]2(C)C([C@H](NC(=O)c3ccccc3)[C@]3(O)C[C@H](OC(=O)[C@@H](O)[C@@H](NC(=O)OC(C)(C)C)c4ccccc4)C(C)=C1C3(C)C)[C@@](CO)(OC(C)=O)[C@@H](O)C[C@@H]2O (some centres undefined)
< 7.00 | < 7.00 | < 6.00 | < 6.00 |  |  | CC(=O)O[C@H]1C(=O)[C@@]2(C)C([C@H](NC(=O)c3ccc([N+](=O)[O-])cc3)[C@]3(O)C[C@H](OC(=O)[C@@H](O)[C@@H](NC(=O)OC(C)(C)C)c4ccccc4)C(C)=C1C3(C)C)[C@]1(OC(C)=O)CO[C@@H]1C[C@@H]2O (some centres undefined)
8.39 | 8.36 | 7.01 | 6.70 | 8.10 | 5.38 | CC(=O)O[C@@]12CO[C@@H]1C[C@H](O)[C@@]1(C)C(=O)[C@H](O)C3=C(C)[C@@H](OC(=O)[C@H](O)[C@@H](NC(=O)OC(C)(C)C)c4ccccc4)C[C@@](O)([C@@H](OC(=O)c4ccccc4)[C@H]21)C3(C)C [DOCETAXEL]
7.92 | 8.04 | 6.02 | 5.77 | 8.26 | < 5.22 | CC(=O)O[C@H]1C(=O)[C@@]2(C)[C@H]([C@H](OC(=O)c3ccccc3)[C@]3(O)C[C@H](OC(=O)[C@H](O)[C@@H](NC(=O)c4ccccc4)c4ccccc4)C(C)=C1C3(C)C)[C@]1(OC(C)=O)CO[C@@H]1C[C@@H]2O [PACLITAXEL]
